# Reference: PubChem BioAssay (NCI)
#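 Interpolation was linear, between the two tested concentrations surrounding the appropriate level; five concentrations were tested over 48 hours in 96-well plates. Abbreviation: GI50, concentration required for 50% inhibition of growth. TGI marks complete inhibition of growth.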
# What was measured:
# Test in all cases: NCI anticancer screen, dose series, 48 h
# [1] = test system: MDA-MB-435
# [2] = test system: 786-0 renal
# [3] = test system: TK-10 renal
# [4] = test system: K-562 leukemia
# [5] = test system: SW-620 colon
# [6] = test system: SK-MEL-5 melanoma
# [7] = test system: MOLT-4 leukemia
# [8] = test system: NCI/ADR-RES ovarian
# [9] = test system: SK-MEL-2 melanoma
# [10] = test system: U251 CNS
# [11] = test system: CCRF-CEM leukemia
# [12] = test system: OVCAR-5 ovarian
# [13] = test system: OVCAR-8 ovarian
# [14] = test system: HOP-92 NSCLC
# [15] = test system: RXF 393 renal
# [16] = test system: BT-549 breast
# [17] = test system: NCI-H460 lung
# [18] = test system: T-47D breast
# [19] = test system: A549 NSCLC
# [20] = test system: MDA-MB-231 breast
# [21] = test system: NCI-H226 lung
# [22] = test system: SK-OV-3 ovarian
# [23] = test system: EKVX NSCLC
# [24] = test system: COLO 205 colon
# [25] = test system: SN12C renal
# [26] = test system: NCI-H23 lung
# [27] = test system: SNB-19 CNS
# [28] = test system: SF-539 CNS
# [29] = test system: HL-60(TB) leukemia
# [30] = test system: MCF7 breast
# [31] = test system: UACC-257 melanoma
# [32] = test system: CAKI-1 renal
# [33] = test system: SF-295 CNS
# [34] = test system: UO-31 renal
# [35] = test system: SR leukemia
# [36] = test system: UACC-62 melanoma
# [37] = test system: IGROV1 ovarian
# [38] = test system: NCI-H522 lung
# [39] = test system: HS 578T breast
# [40] = test system: HT29 colon
# [41] = test system: A498 renal
# [42] = test system: OVCAR-3 ovarian
# [43] = test system: PC-3 prostate
# [44] = test system: RPMI-8226 leukemia
# [45] = test system: KM12 colon
# [46] = test system: SF-268 CNS
# [47] = test system: HCC-2998 colon
compound,measurement,setting,value
CN(C)CCCNC(=O)c1cc(NC(=O)c2cc(NC(=O)CCNS(=O)(=O)c3ccc4c(c3)C(=O)c3ccccc3C4=O)cn2C)cn1C,GI50,[1],> 100 µM
same,TGI,[1],> 100 µM
same,GI50,[2],> 100 µM
same,TGI,[2],> 100 µM
same,GI50,[3],74.2 µM
same,TGI,[3],> 100 µM
same,GI50,[4],> 100 µM
same,TGI,[4],> 100 µM
same,GI50,[5],> 100 µM
same,TGI,[5],> 100 µM
same,GI50,[6],> 100 µM
same,TGI,[6],> 100 µM
same,GI50,[7],> 100 µM
same,TGI,[7],> 100 µM
same,GI50,[8],> 100 µM
same,TGI,[8],> 100 µM
same,GI50,[9],> 100 µM
same,TGI,[9],> 100 µM
same,GI50,[10],> 100 µM
same,TGI,[10],> 100 µM
same,GI50,[11],> 100 µM
same,TGI,[11],> 100 µM
same,GI50,[12],> 100 µM
same,TGI,[12],> 100 µM
same,GI50,[13],> 100 µM
same,TGI,[13],> 100 µM
same,GI50,[14],> 100 µM
same,TGI,[14],> 100 µM
same,GI50,[15],> 100 µM
same,TGI,[15],> 100 µM
same,GI50,[16],> 100 µM
same,TGI,[16],> 100 µM
same,GI50,[17],> 100 µM
same,TGI,[17],> 100 µM
same,GI50,[18],> 100 µM
same,TGI,[18],> 100 µM
same,GI50,[19],> 100 µM
same,TGI,[19],> 100 µM
same,GI50,[20],> 100 µM
same,TGI,[20],> 100 µM
same,GI50,[21],> 100 µM
same,TGI,[21],> 100 µM
same,GI50,[22],> 100 µM
same,TGI,[22],> 100 µM
same,GI50,[23],> 100 µM
same,TGI,[23],> 100 µM
same,GI50,[24],> 100 µM
same,TGI,[24],> 100 µM
same,GI50,[25],> 100 µM
same,TGI,[25],> 100 µM
same,GI50,[26],> 100 µM
same,TGI,[26],> 100 µM
same,GI50,[27],> 100 µM
same,TGI,[27],> 100 µM
same,GI50,[28],> 100 µM
same,TGI,[28],> 100 µM
same,GI50,[29],> 100 µM
same,TGI,[29],> 100 µM
same,GI50,[30],> 100 µM
same,TGI,[30],> 100 µM
same,GI50,[31],> 100 µM
same,TGI,[31],> 100 µM
same,GI50,[32],> 100 µM
same,TGI,[32],> 100 µM
same,GI50,[33],> 100 µM
same,TGI,[33],> 100 µM
same,GI50,[34],> 100 µM
same,TGI,[34],> 100 µM
same,GI50,[35],85.9 µM
same,TGI,[35],> 100 µM
same,GI50,[36],> 100 µM
same,TGI,[36],> 100 µM
same,GI50,[37],> 100 µM
same,TGI,[37],> 100 µM
same,GI50,[38],> 100 µM
same,TGI,[38],> 100 µM
same,GI50,[39],> 100 µM
same,TGI,[39],> 100 µM
same,GI50,[40],> 100 µM
same,TGI,[40],> 100 µM
same,GI50,[41],> 100 µM
same,TGI,[41],> 100 µM
same,GI50,[42],> 100 µM
same,TGI,[42],> 100 µM
same,GI50,[43],> 100 µM
same,TGI,[43],> 100 µM
same,GI50,[44],> 100 µM
same,TGI,[44],> 100 µM
same,GI50,[45],> 100 µM
same,TGI,[45],> 100 µM
same,GI50,[46],> 100 µM
same,TGI,[46],> 100 µM
same,GI50,[47],> 100 µM
same,TGI,[47],> 100 µM
